Values quoted from earlier work, collected in patent publication US10273202B2, “Nitroxyl progenitor compounds and methods of use” (The Johns Hopkins University, priority 2004, dated 2019).
Where two headings read alike, the source gives them in different places.

System: dog with congestive heart failure
Settings: CHF dogs
[1] = 5-10 μg/kg/min for 15 min i.v., n=8

Question: Which results are given for `[Na+].[Na+].[O-][N+]([O-])=NO` [AS, Angeli's salt]?
Answer: Ees, % from baseline [1]: +46 ± 8%; LVEDD, % from baseline [1]: −3.8 ± 1%; LVEDP, % from baseline [1]: −50 ± 12%; LVESD, % from baseline [1]: −3.9 ± 1%; LVESP, % from baseline [1]: −13 ± 2%; RT, % from baseline [1]: −12 ± 5%; Tau, % from baseline [1]: −18 ± 2%; Ees, % from baseline (5-10 μg/kg/min, + volume): +37 ± 5%; LVEDD, % from baseline (5-10 μg/kg/min, + volume): −1.7 ± 1%; LVEDP, % from baseline (5-10 μg/kg/min, + volume): −34 ± 19%; LVESD, % from baseline (5-10 μg/kg/min, + volume): −3.0 ± 0.5%; LVESP, % from baseline (5-10 μg/kg/min, + volume): −9.9 ± 2%; RT, % from baseline (5-10 μg/kg/min, + volume): −14 ± 4%; Tau, % from baseline (5-10 μg/kg/min, + volume): −15 ± 3%
